Laboratory results: patent publication US11446287B2, “Compounds and methods for EP300 or CBP modulation and indications therefor” (Opna Immuno-Oncology SA, priority 2019, dated 2022)

These molecules were tested against T1, Recombinant human BRD4 containing dual bromodomains (BRD4-BD12 (1-477)) (Homo sapiens, UniProt O60885) (assay: BRD4 Alphascreen binding assay).
T1 construct: Recombinant human BRD4 containing dual bromodomains (BRD4-BD12 (1-477)); made in house; host or cells: E. coli BL21-CodonPlus (DE3), modified pET vector
Experimental: BRD4 Alphascreen Binding Assay
Binding of compounds of Formula (I) with BRD4 was assessed using Alphascreen binding assay. The inhibition of the interaction between BRD4 and its acetylated target protein was measured quantitatively using recombinant BRD4 protein, an acetylated Histone 4 peptide, and AlphaScreen™ technology. In absence of inhibition of the BRD4 protein bound to AlphaScreen™ nickel chelate acceptor beads can interact with the acetylated Histone 4 peptide which was immobilized by the AlphaScreen™ Streptavidin coated beads. This interaction brings donor and acceptor beads in proximity. The close proximity allows the singlet oxygen produced by laser excitation of the donor beads to reach the acceptor beads and generate a luminescence signal. BRD4 inhibitors result in a decrease in the proximity signal through an inhibition of the BRD4—acetylated peptide interaction.
Recombinant human BRD4 containing dual bromodomains (BRD4-BD12 (1-477)) was prepared and purified as described in protein expression and purification session. The peptide was human Histone H41-21K5AcK8AcK12AcK16Ac-Biotin (Anaspec CA, USA).
Protocol for BRD4 assay: All components are prepared in buffer composed of 50 mM HEPES pH 7.5, 50 mM NaCl, 0.01% BSA, 0.01% Triton X-100, 2 mM DTT. Test compounds and DMSO vehicle are diluted 1:50 in buffer and a 4 μL volume was transferred to an Alphaplate. 5.5 μL of Bromodomain protein and 5.5 μL of peptide are added to wells containing 4 μL of various concentrations of test compounds of Formula (I) or DMSO vehicle in an Alphaplate (PerkinElmer GA, USA) and incubated for 1 hour at room temperature. 5 μL donor and acceptor bead mixture was then added with final concentrations of 7.5 μg/ml. 30 minutes after bead addition, Alpha signal was read on the Envision spectrometer (λEx 680 nm, λEm 520-620 nm). Final concentrations of bromodomain proteins and peptide are as shown below.
All data were normalized to the mean of 16 high and 16 low control wells on each plate. A four parameter curve fit of the following formula was then applied: Y=A+((B−A)/(1+((C/x)^D))) Where ‘A’ is the minimum, ‘B’ is the maximum, ‘C’ is the IC50 and ‘D’ is the Hill slope. Protein Expression and Purification
Recombinant human BRD4 containing dual bromodomains (BRD4-BD12 (1-477)) was expressed in E. coli cells (in a modified pET vector) with an N-terminal six-His tag and purified using a combination of both IMAC (Ni-affinity) and size exclusion chromatography steps.
Recombinant BRD4 was expressed using the E. coli strain BL21-CodonPlus (DE3) (Agilent Technologies CA, USA). Cells were grown in Terrific Broth (TB) media to an OD600 of 2.0 at 37° C. at which temperature was reduced to 18° C., protein was induced with 0.1 mM isopropyl-β-D-thiogalactopyranoside (“IPTG”) for 12-18 hours and harvested by centrifugation at 8000×g for 20 minutes. Cells were re-suspended in 40 mM Tris-HCl pH 8.0, 0.5 M NaCl, 25 mM Imidazole, 5% glycerol, 1/200 vol. Protease Inhibitor Cocktail Set III (Calbiochem), 5 mM beta-mercaptoethanol (“BME”), 0.5 mg/mL Lysozyme, and 0.5 mg/mL DNaseI, incubated on ice for 30 minutes and lysed with a cell disruptor (MicroFluidics MA, USA). The lysate was clarified by centrifugation at 20,000×g for 2 hours. The protein was captured with Ni-NTA resin (Life Technologies, USA). Contaminating proteins were washed off with 40 mM Tris-HCl pH 8.0, 0.5 M NaCl, 25 mM Imidazole, 5% glycerol, and 5 mM BME. Following 3× wash steps, protein was eluted step wise into wash buffer containing 50, 100, 150, 500 mM Imidazole. The protein was further purified using Gel Filtration column 16/60 Superdex 200 (GE Biosciences NJ, USA) in 10 mM HEPES pH 8.0, 150 mM NaCl, and 5 mM DTT. Glycerol was added to a final concentration of 12% and the protein was aliquoted and flash-frozen in liquid Nitrogen.

Structure (SMILES)	IC50 [µM]
Cc1noc(C)c1-c1cnc2c(c1)c(-c1ccnc(O)c1)cn2[C@@H](C)c1ccccn1 [P-0145, (S)-4-(5-(3,5-dimethylisoxazol-4-yl)-1-(1-(pyridin-2-yl)ethyl)-1H-pyrrolo[2,3-b]pyridin-3-yl)pyridin-2-ol]	8 to 1000
Cc1noc(C)c1-c1cnc2c(-c3ccc(C(=O)O)cc3)c(C(F)(F)F)n([C@@H](C)c3ccccn3)c2c1 [P-0154, (S)-4-(6-(3,5-dimethylisoxazol-4-yl)-1-(1-(pyridin-2-yl)ethyl)-2-(trifluoromethyl)-1H-pyrrolo[3,2-b]pyridin-3-yl)benzoic acid]	0.0001 to 1
Cc1noc(C)c1-c1cnc2c(Cc3cccc(OCc4ccccc4)c3)cn(-c3c(Cl)cc(C(=O)O)cc3Cl)c2c1 [P-0132, 4-(3-(3-(benzyloxy)benzyl)-6-(3,5-dimethylisoxazol-4-yl)-1H-pyrrolo[3,2-b]pyridin-1-yl)-3,5-dichlorobenzoic acid]	8 to 1000
Cc1noc(C)c1-c1cnc2c(Cc3cccc(OC(F)F)c3)cn(-c3ccnc(C(=O)O)c3)c2c1 [P-0100, 4-(3-(3-(difluoromethoxy)benzyl)-6-(3,5-dimethylisoxazol-4-yl)-1H-pyrrolo[3,2-b]pyridin-1-yl)picolinic acid]	1 to 8
COc1c(C(=O)O)cccc1-c1cn(C(C)c2ccccc2)c2cc(-c3c(C)noc3C)cnc12 (stereo not drawn) [P-0136, 3-(6-(3,5-dimethylisoxazol-4-yl)-1-(1-phenylethyl)-1H-pyrrolo[3,2-b]pyridin-3-yl)-2-methoxybenzoic acid]	0.0001 to 1
CCCOc1cc(C(=O)O)cc(OCCC)c1-n1cc(CC2CCC2)c2ncc(-c3c(C)noc3C)cc21 [P-0127, 4-(3-(cyclobutylmethyl)-6-(3,5-dimethylisoxazol-4-yl)-1H-pyrrolo[3,2-b]pyridin-1-yl)-3,5-dipropoxybenzoic acid]	8 to 1000
Cc1noc(C)c1-c1cnc2c(c1)c(-c1ccnc(C(=O)O)n1)cn2C(C)c1ccccn1 (stereo not drawn) [P-0126, 4-(5-(3,5-dimethylisoxazol-4-yl)-1-(1-(pyridin-2-yl)ethyl)-1H-pyrrolo[2,3-b]pyridin-3-yl)pyrimidine-2-carboxylic acid]	8 to 1000
Cc1noc(C)c1-c1cnc2c(c1)c(-c1cccc(C(=O)O)n1)cn2C(C)c1ccccn1 (stereo not drawn) [P-0122, 6-(5-(3,5-dimethylisoxazol-4-yl)-1-(1-(pyridin-2-yl)ethyl)-1H-pyrrolo[2,3-b]pyridin-3-yl)picolinic acid]	8 to 1000
Cc1noc(C)c1-c1cnc2c(CC3CCC3)cn(-c3ccc(C#N)c(C(=O)O)c3)c2c1 [P-0104, 2-cyano-5-(3-(cyclobutylmethyl)-6-(3,5-dimethylisoxazol-4-yl)-1H-pyrrolo[3,2-b]pyridin-1-yl)benzoic acid]	8 to 1000
Cc1noc(C)c1-c1cnc2c(CC3CCC3)cn(-c3ccc(C(=O)O)cn3)c2c1 [P-0009, 6-(3-(cyclobutylmethyl)-6-(3,5-dimethylisoxazol-4-yl)-1H-pyrrolo[3,2-b]pyridin-1-yl)nicotinic acid]	8 to 1000
Cc1noc(C)c1-c1cnc2c(c1)c(-c1ccc(C(=O)O)cc1OC1COC1)cn2[C@@H](C)c1ccccn1 [P-0137, (S)-4-(5-(3,5-dimethylisoxazol-4-yl)-1-(1-(pyridin-2-yl)ethyl)-1H-pyrrolo[2,3-b]pyridin-3-yl)-3-(oxetan-3-yloxy)benzoic acid]	8 to 1000
Cc1noc(C)c1-c1cnc2c(c1)c(-c1ccc(F)c(C(=O)O)c1F)cn2[C@@H](C)c1ccccn1 [P-0125, (S)-3-(5-(3,5-dimethylisoxazol-4-yl)-1-(1-(pyridin-2-yl)ethyl)-1H-pyrrolo[2,3-b]pyridin-3-yl)-2,6-difluorobenzoic acid]	8 to 1000
Cc1noc(C)c1-c1cnc2c(CC3CCC3)cn(-c3ccc(C(=O)O)c(C#N)c3)c2c1 [P-0105, 2-cyano-4-(3-(cyclobutylmethyl)-6-(3,5-dimethylisoxazol-4-yl)-1H-pyrrolo[3,2-b]pyridin-1-yl)benzoic acid]	8 to 1000
Cc1noc(C)c1-c1cnc2c(C3=CCOCC3)cn(-c3c(Cl)cc(C(=O)O)cc3Cl)c2c1 [P-0151, 3,5-dichloro-4-(3-(3,6-dihydro-2H-pyran-4-yl)-6-(3,5-dimethylisoxazol-4-yl)-1H-pyrrolo[3,2-b]pyridin-1-yl)benzoic acid]	1 to 8
COc1cc(C(=O)O)cc(OCC2CC2)c1-c1cn([C@@H](C)c2ccccn2)c2ncc(-c3c(C)noc3C)cc12 [P-0152, (S)-3-(cyclopropylmethoxy)-4-(5-(3,5-dimethylisoxazol-4-yl)-1-(1-(pyridin-2-yl)ethyl)-1H-pyrrolo[2,3-b]pyridin-3-yl)-5-methoxybenzoic acid]	8 to 1000
Cc1noc(C)c1-c1cnc2c(c1)c(-c1ccc(C(=O)O)cc1F)cn2[C@@H](C)c1ccccn1 [P-0097, (S)-4-(5-(3,5-dimethylisoxazol-4-yl)-1-(1-(pyridin-2-yl)ethyl)-1H-pyrrolo[2,3-b]pyridin-3-yl)-3-fluorobenzoic acid]	8 to 1000
Cc1noc(C)c1-c1cnc2c(Cc3ccccn3)cn(-c3ccc(C(=O)O)cc3OC(F)(F)F)c2c1 [P-0159, 4-(6-(3,5-dimethylisoxazol-4-yl)-3-(pyridin-2-ylmethyl)-1H-pyrrolo[3,2-b]pyridin-1-yl)-3-(trifluoromethoxy)benzoic acid]	0.0001 to 1
Cc1ccc(S(=O)(=O)n2cc(-c3ccc(C(=O)O)cc3)c3cc(-c4c(C)noc4C)cnc32)cc1 [P-0006, 4-(5-(3,5-dimethylisoxazol-4-yl)-1-tosyl-1H-pyrrolo[2,3-b]pyridin-3-yl)benzoic acid]	8 to 1000
C#Cc1ccccc1-c1cn(C(C)(c2ccccn2)c2ccccn2)c2cc(-c3c(C)noc3C)cnc12 [P-0167, 4-(1-(1,1-di(pyridin-2-yl)ethyl)-3-(2-ethynylphenyl)-1H-pyrrolo[3,2-b]pyridin-6-yl)-3,5-dimethylisoxazole]	0.0001 to 1
Cc1noc(C)c1-c1cnc2c(c1)c(-c1ccc(C(=O)O)cc1)cn2C(c1ccccn1)C1CC1 (stereo not drawn) [P-0007, 4-(1-(cyclopropyl(pyridin-2-yl)methyl)-5-(3,5-dimethylisoxazol-4-yl)-1H-pyrrolo[2,3-b]pyridin-3-yl)benzoic acid]	8 to 1000
Cc1noc(C)c1-c1cnc2c(c1)c(-c1cncc(C(=O)O)n1)cn2[C@@H](C)c1ccccn1 [P-0106, (S)-6-(5-(3,5-dimethylisoxazol-4-yl)-1-(1-(pyridin-2-yl)ethyl)-1H-pyrrolo[2,3-b]pyridin-3-yl)pyrazine-2-carboxylic acid]	8 to 1000
CCOc1cc(C(=O)O)ccc1-c1cn([C@@H](C)c2ccccn2)c2ncc(-c3c(C)noc3C)cc12 [P-0114, (S)-4-(5-(3,5-dimethylisoxazol-4-yl)-1-(1-(pyridin-2-yl)ethyl)-1H-pyrrolo[2,3-b]pyridin-3-yl)-3-ethoxybenzoic acid]	8 to 1000
Cc1noc(C)c1-c1cnc2c(c1)c(-c1cccc(C(=O)O)c1)cn2CC1(C)COC1 [P-0102, 3-(5-(3,5-dimethylisoxazol-4-yl)-1-((3-methyloxetan-3-yl)methyl)-1H-pyrrolo[2,3-b]pyridin-3-yl)benzoic acid]	8 to 1000
Cc1noc(C)c1-c1cnc2c(-c3cc(C(=O)O)ccc3Cl)cn(C(C)(c3ccccn3)c3ccccn3)c2c1 [P-0164, 4-chloro-3-(1-(1,1-di(pyridin-2-yl)ethyl)-6-(3,5-dimethylisoxazol-4-yl)-1H-pyrrolo[3,2-b]pyridin-3-yl)benzoic acid]	1 to 8
